In experiment [1] the test system is normotensive Dutch Belted rabbits. Description: Rabbit IOP measurements after intracameral injection or topical dosing. The experiment is classed as in vivo. Conditions: single intracameral injection. The protocol:
For the ICM injection procedure, rabbits were anesthetized with ketamine/xylazine and received topical anesthesia with 0.5% proparacaine hydrochloride. […] After the procedure, topical bacitracin-neomycin-polymyxin ophthalmic ointment was applied to both eyes to prevent infection and dry eyes. […] The IOP were measured immediately before the topical dosing (0 h), and at 2, 4, 6 and 8 h after the eyedrop administration.

The subject of experiment [2] is ARPE-19 cells. Description: Cell-penetration assay with biotinylated peptides in induced and non-induced ARPE-19 cells. The note with it: C-terminal biotinylated peptide 100 μM, 6 h, 37° C. The experiment is classed as cell-based. The protocol: Four 96 well plates per group were seeded at 0.01×10^6 cells/well. ARPE-19 cells were either cultured with DMEM:F12 medium containing 10% FBS according to protocol provided by the vendor (non-induced) or cultured in DMEM high glucose, pyruvate media with […] of ferric ammonium citrate (Wolkow, N. et al., Exp Eye Res 128, 92-101, (2014)) for 2 months (induced) (Kim, Y. C. et al. Drug Deliv Transl Res, doi:10.1007/s13346-021-00987-6 (2021)). The expression of melanin was confirmed visually with bright field microscopy and by measuring absorbance at 475 nm (>0.4 a.u., not shown). Within each plate, 12 wells were randomly selected to quantify the cell numbers with an automated cell counter (Countess 3 Automated Cell Counter, Thermo Fisher) for normalization in the cell uptake study. Next, 100 μL (100 μM in pH 6.5 PBS) of each of the 127 C-terminal biotinylated peptides was added to n=3 wells for both the induced and non-induced ARPE-19 cells for 6 h at 37° C. The cells were then washed thoroughly 5 times with PBS solution to remove extracellular peptide. To quantify cell-associated peptides, the cells were lysed with 100 μL of RIPA lysis buffer at 4 C for 48 h. […] The mean intracellular concentration values were grouped by cell types (induced or non-induced), and the two-sample Wilcoxon test (Mann-Whitney) was calculated using the R function wilcox.test. Intracellular concentration values were also plotted against experimental melanin binding and the relationship was quantified using a simple linear model and its corresponding R^2.
It was next characterized how the predicted cell-penetrating properties of the peptides affected cell uptake in a retinal pigment epithelium (RPE) cell line (ARPE-19). ARPE-19 cells were cultured using standard methods (non-induced, n=3) and using culture conditions that induce melanin production (induced, n=3) (Kim, Y. C. et al., Drug Deliv Transl Res, doi:10.1007/s13346-021-00987-6 (2021)).

Regarding `Brc1c(NC2=NCCN2)ccc2nccnc12` [brimonidine], in experiment [1], the “time for the average ΔIOP to return to baseline” value was found to be 8 days. In experiment [1] (at 2 days, n=5), the “peak reduction in IOP from baseline (ΔIOP)” value was −2.6±1.65 mmHg.
For the compound FSGKRRKRKPR [HR97], the “cell uptake (intracellular peptide concentration)” value in experiment [2] (non-induced ARPE-19 cells) stood at 82.5±15.8 pmol/100K cells.
In the case of YGRKKRRQRRR [TAT47-57], the entries for the “cell uptake (intracellular peptide concentration)” value in experiment [2] (induced (melanin-producing) ARPE-19 cells) and in experiment [2] (non-induced ARPE-19 cells) were 478±20.8 pmol/100K cells and 58.7±7.43 pmol/100K cells, respectively.

These data come from patent US20250222119A1, “ENGINEERING OF MULTIFUNCTIONAL PEPTIDES FOR CONTROLLED DRUG DELIVERY” (The Johns Hopkins University, priority 2022, published 2025).
